Data taken from patent publication EP4722207A1, “OXOISOINDOLINYL-SUBSTITUTED TETRAHYDROPYRIMIDINEDIONE DERIVATIVE AND USE THEREOF” (Gluetacs Therapeutics (Shanghai) Co., Ltd., priority 2023, dated 2024).

How the values were obtained:
Assay type in all cases: cell-based
Conditions in all cases: compounds at 50 nM and 500 nM, 24 hours
[1] = target: T1, WEE1 (Homo sapiens, UniProt P30291+Q96SW2); test: Western-blot assay, substrate protein degradation in hPBMCs: WEE1
T1 construct: effects of the compounds of the present disclosure on the expression of target proteins in cells; endogenous in cells; host or cells: human PBMCs (hPBMCs)
T1 sequence (P30291 whole entry): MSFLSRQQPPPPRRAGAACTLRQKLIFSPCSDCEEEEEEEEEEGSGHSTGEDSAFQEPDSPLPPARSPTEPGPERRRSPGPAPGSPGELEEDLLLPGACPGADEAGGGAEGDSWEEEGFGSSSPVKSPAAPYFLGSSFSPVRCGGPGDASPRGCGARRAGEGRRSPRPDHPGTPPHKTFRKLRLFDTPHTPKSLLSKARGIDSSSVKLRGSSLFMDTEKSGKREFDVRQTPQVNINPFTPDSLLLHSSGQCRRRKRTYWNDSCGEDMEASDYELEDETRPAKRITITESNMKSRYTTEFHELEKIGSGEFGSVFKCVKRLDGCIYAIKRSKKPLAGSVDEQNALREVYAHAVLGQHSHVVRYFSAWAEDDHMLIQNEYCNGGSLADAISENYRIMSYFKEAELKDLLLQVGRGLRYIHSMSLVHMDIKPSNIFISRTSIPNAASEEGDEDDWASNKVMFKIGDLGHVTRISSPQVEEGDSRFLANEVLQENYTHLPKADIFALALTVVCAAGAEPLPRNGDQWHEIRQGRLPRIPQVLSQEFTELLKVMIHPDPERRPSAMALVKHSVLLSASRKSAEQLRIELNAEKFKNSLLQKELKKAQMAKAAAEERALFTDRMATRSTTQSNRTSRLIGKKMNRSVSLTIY
T1 sequence (Q96SW2 whole entry): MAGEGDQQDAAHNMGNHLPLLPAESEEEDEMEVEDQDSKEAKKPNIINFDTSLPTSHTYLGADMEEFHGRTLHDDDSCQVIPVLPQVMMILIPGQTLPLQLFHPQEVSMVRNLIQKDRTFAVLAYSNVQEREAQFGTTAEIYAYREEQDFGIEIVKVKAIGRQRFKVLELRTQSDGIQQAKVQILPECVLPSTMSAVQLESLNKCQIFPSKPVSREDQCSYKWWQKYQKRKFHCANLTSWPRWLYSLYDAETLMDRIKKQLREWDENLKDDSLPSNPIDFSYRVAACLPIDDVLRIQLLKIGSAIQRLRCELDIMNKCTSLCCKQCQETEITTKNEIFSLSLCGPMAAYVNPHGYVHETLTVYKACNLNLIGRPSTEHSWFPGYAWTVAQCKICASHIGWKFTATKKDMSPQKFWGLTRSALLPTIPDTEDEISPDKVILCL
T1 sequence (Q16531 whole entry partner): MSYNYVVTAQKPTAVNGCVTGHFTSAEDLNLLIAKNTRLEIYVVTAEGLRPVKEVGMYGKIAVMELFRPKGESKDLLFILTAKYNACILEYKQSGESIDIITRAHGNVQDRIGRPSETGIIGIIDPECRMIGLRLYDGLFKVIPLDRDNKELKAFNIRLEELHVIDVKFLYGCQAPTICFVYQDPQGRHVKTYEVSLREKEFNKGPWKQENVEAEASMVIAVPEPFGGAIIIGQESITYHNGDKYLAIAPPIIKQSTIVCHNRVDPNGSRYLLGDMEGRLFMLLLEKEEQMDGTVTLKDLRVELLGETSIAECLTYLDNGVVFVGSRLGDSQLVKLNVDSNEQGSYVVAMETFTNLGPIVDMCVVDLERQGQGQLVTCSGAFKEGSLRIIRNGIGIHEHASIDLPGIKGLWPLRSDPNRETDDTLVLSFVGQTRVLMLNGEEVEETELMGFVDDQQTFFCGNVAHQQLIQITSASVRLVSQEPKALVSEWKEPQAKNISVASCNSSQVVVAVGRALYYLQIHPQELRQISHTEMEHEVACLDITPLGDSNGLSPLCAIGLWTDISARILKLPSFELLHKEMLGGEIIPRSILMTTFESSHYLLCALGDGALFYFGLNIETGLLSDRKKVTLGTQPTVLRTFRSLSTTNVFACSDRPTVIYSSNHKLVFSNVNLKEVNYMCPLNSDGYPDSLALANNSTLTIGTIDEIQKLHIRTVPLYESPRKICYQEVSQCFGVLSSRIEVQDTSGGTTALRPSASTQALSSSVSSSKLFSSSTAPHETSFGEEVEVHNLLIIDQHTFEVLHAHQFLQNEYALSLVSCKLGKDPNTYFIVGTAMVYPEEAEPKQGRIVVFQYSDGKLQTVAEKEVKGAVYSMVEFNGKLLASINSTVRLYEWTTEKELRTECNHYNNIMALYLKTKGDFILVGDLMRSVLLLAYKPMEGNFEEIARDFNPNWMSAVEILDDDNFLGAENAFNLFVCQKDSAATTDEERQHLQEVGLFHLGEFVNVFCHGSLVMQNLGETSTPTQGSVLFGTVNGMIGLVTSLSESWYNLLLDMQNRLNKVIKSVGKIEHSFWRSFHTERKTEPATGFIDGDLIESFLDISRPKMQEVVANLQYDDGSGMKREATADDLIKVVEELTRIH

[2] = target: T2, IKZF2 (Homo sapiens, UniProt Q96SW2+Q9UKS7); test: Western-blot assay, substrate protein degradation in hPBMCs: IKZF2
T2 construct: effects of the compounds of the present disclosure on the expression of target proteins in cells; endogenous in cells; host or cells: human PBMCs (hPBMCs)
T2 sequence (Q9UKS7 whole entry): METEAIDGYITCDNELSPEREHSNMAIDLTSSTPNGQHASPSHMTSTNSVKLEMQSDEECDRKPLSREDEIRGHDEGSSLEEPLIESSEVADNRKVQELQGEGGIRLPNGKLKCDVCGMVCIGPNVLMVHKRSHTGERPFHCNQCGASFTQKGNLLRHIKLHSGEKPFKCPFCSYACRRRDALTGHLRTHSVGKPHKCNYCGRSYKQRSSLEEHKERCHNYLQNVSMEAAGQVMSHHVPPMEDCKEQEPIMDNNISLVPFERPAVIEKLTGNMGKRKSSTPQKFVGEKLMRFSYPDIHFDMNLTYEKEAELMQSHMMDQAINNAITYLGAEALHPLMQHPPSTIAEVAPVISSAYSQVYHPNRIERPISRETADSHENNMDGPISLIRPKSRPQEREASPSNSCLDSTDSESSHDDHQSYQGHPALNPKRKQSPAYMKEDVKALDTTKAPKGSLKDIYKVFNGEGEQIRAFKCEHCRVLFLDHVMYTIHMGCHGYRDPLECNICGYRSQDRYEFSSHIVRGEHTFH
T2 sequence (Q96SW2 whole entry): as the sequence (Q96SW2 whole entry) above
T2 sequence (Q16531 whole entry partner): as the sequence (Q16531 whole entry partner) above

[3] = target: T3, IKZF1 (Homo sapiens, UniProt Q13422+Q96SW2); test: Western-blot assay, substrate protein degradation in hPBMCs: IKZF1
T3 construct: effects of the compounds of the present disclosure on the expression of target proteins in cells; endogenous in cells; host or cells: human PBMCs (hPBMCs)
T3 sequence (Q13422 whole entry): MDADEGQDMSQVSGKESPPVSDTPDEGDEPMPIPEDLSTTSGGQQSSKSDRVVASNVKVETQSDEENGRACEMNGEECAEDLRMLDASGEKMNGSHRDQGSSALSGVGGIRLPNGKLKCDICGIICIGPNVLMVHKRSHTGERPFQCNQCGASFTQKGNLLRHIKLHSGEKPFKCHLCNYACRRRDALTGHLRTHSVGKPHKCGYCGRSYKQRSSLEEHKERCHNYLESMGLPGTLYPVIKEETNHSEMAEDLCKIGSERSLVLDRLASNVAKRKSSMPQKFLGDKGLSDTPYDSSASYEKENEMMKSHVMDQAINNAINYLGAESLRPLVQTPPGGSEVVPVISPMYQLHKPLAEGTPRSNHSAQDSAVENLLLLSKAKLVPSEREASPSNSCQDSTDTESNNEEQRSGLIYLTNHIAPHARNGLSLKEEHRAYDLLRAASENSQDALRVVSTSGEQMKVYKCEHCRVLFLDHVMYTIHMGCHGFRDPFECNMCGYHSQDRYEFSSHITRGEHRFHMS
T3 sequence (Q96SW2 whole entry): as the sequence (Q96SW2 whole entry) above
T3 sequence (Q16531 whole entry partner): as the sequence (Q16531 whole entry partner) above

[4] = target: T4, CK1α (Homo sapiens, UniProt P48729+Q96SW2); test: Western-blot assay, substrate protein degradation in hPBMCs: CK1α
T4 construct: effects of the compounds of the present disclosure on the expression of target proteins in cells; endogenous in cells; host or cells: human PBMCs (hPBMCs)
T4 sequence (P48729 whole entry): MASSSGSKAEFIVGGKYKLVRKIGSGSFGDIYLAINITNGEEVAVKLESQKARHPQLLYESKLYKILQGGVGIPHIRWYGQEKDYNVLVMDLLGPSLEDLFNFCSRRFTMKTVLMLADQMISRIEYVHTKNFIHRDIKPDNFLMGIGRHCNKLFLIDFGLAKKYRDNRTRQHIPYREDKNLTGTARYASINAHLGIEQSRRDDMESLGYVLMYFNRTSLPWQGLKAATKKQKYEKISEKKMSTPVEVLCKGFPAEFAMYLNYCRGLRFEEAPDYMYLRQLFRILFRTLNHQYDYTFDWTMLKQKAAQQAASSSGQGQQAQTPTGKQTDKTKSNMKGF
T4 sequence (Q96SW2 whole entry): as the sequence (Q96SW2 whole entry) above
T4 sequence (Q16531 whole entry partner): as the sequence (Q16531 whole entry partner) above

[5] = target: T5, GSPT1 (Homo sapiens, UniProt P15170+Q96SW2); test: Western-blot assay, substrate protein degradation in hPBMCs: GSPT1
T5 construct: effects of the compounds of the present disclosure on the expression of target proteins in cells; endogenous in cells; host or cells: human PBMCs (hPBMCs)
T5 sequence (P15170 whole entry): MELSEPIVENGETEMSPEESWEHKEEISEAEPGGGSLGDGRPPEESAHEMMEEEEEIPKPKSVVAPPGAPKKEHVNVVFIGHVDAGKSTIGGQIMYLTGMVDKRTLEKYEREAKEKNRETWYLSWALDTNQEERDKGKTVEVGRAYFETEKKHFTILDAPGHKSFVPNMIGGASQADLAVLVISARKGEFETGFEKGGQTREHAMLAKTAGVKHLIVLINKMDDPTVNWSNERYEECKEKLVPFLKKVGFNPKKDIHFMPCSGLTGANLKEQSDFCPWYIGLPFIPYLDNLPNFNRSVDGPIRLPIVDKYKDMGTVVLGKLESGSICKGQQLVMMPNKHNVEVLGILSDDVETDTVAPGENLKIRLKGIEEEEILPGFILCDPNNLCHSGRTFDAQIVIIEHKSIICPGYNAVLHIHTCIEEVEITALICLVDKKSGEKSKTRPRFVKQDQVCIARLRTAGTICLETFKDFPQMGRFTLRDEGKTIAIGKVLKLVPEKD
T5 sequence (Q96SW2 whole entry): as the sequence (Q96SW2 whole entry) above
T5 sequence (Q16531 whole entry partner): as the sequence (Q16531 whole entry partner) above

[6] = target: T6, IKZF3 (Homo sapiens, UniProt Q96SW2+Q9UKT9); test: Western-blot assay, substrate protein degradation in hPBMCs: IKZF3
T6 construct: effects of the compounds of the present disclosure on the expression of target proteins in cells; endogenous in cells; host or cells: human PBMCs (hPBMCs)

Row | SMILES | WEE1 substrate protein remaining % [1] | IKZF2 substrate protein remaining % [2] | IKZF1 substrate protein remaining % [3] | CK1α substrate protein remaining % [4] | GSPT1 substrate protein remaining % [5] | IKZF3 substrate protein remaining % [6]
1 | Cc1ccc(N2CCN(Cc3ccc4c(c3)CN(N3CCC(=O)NC3=O)C4=O)CC2)c(C)c1 [GT-06882, 1-(5-((4-(2,4-dimethylphenyl)piperazin-1-yl)methyl)-1-oxoisoindolin-2-yl)dihydropyrimidine-2,4(1H,3H)-dione] | A ("A" is defined as 0% ≤ substrate protein remaining % ≤ 80%) | B ("B" is defined as 80%< substrate protein remaining %≤ 100%) | A ("A" is defined as 0% ≤ substrate protein remaining % ≤ 80%) | B ("B" is defined as 80%< substrate protein remaining %≤ 100%) | A ("A" is defined as 0% ≤ substrate protein remaining % ≤ 80%) | B ("B" is defined as 80%< substrate protein remaining %≤ 100%)
2 | Cc1ccc(Cl)cc1N1CCN(Cc2ccc3c(c2)CN(N2CCC(=O)NC2=O)C3=O)CC1 [GT-06883, 1-(5-((4-(5-chloro-2-methylphenyl)piperazin-1-yl)methyl)-1-oxoisoindolin-2-yl)dihydropyrimidine-2,4(1H,3H)-dione] | A ("A" is defined as 0% ≤ substrate protein remaining % ≤ 80%) | B ("B" is defined as 80%< substrate protein remaining %≤ 100%) | A ("A" is defined as 0% ≤ substrate protein remaining % ≤ 80%) | B ("B" is defined as 80%< substrate protein remaining %≤ 100%) | A ("A" is defined as 0% ≤ substrate protein remaining % ≤ 80%) | B ("B" is defined as 80%< substrate protein remaining %≤ 100%)
3 | O=C1CCN(N2Cc3cc(CN4CCC(c5ccc(Br)cc5)CC4)ccc3C2=O)C(=O)N1 [GT-06886, 1-(5-((4-(4-bromophenyl)piperidin-1-yl)methyl)-1-oxoisoindolin-2-yl)dihydropyrimidine-2,4(1H,3H)-dione] | B ("B" is defined as 80%< substrate protein remaining %≤ 100%) | A ("A" is defined as 0% ≤ substrate protein remaining % ≤ 80%) | B ("B" is defined as 80%< substrate protein remaining %≤ 100%) | B ("B" is defined as 80%< substrate protein remaining %≤ 100%) | A ("A" is defined as 0% ≤ substrate protein remaining % ≤ 80%) | B ("B" is defined as 80%< substrate protein remaining %≤ 100%)
4 | O=C1CCN(N2Cc3cc(CN4CCC(c5ccccc5Cl)CC4)ccc3C2=O)C(=O)N1 [GT-06887, 1-(5-((4-(2-chlorophenyl)piperidin-1-yl)methyl)-1-oxoisoindolin-2-yl)dihydropyrimidine-2,4(1H,3H)-dione] | A ("A" is defined as 0% ≤ substrate protein remaining % ≤ 80%) | A ("A" is defined as 0% ≤ substrate protein remaining % ≤ 80%) | B ("B" is defined as 80%< substrate protein remaining %≤ 100%) | B ("B" is defined as 80%< substrate protein remaining %≤ 100%) | A ("A" is defined as 0% ≤ substrate protein remaining % ≤ 80%) | B ("B" is defined as 80%< substrate protein remaining %≤ 100%)
5 | O=C1CCN(N2Cc3cc(CN4CCC(c5ccc(Cl)cc5)CC4)ccc3C2=O)C(=O)N1 [GT-06888, 1-(5-((4-(4-chlorophenyl)piperidin-1-yl)methyl)-1-oxoisoindolin-2-yl)dihydropyrimidine-2,4(1H,3H)-dione] | A ("A" is defined as 0% ≤ substrate protein remaining % ≤ 80%) | A ("A" is defined as 0% ≤ substrate protein remaining % ≤ 80%) | B ("B" is defined as 80%< substrate protein remaining %≤ 100%) | B ("B" is defined as 80%< substrate protein remaining %≤ 100%) | A ("A" is defined as 0% ≤ substrate protein remaining % ≤ 80%) | B ("B" is defined as 80%< substrate protein remaining %≤ 100%)
6 | O=C1CCN(N2Cc3cc(CN4CCC(c5ccccc5F)CC4)ccc3C2=O)C(=O)N1 [GT-06889, 1-(5-((4-(2-fluorophenyl)piperidin-1-yl)methyl)-1-oxoisoindolin-2-yl)dihydropyrimidine-2,4(1H,3H)-dione] | A ("A" is defined as 0% ≤ substrate protein remaining % ≤ 80%) | A ("A" is defined as 0% ≤ substrate protein remaining % ≤ 80%) | B ("B" is defined as 80%< substrate protein remaining %≤ 100%) | B ("B" is defined as 80%< substrate protein remaining %≤ 100%) | A ("A" is defined as 0% ≤ substrate protein remaining % ≤ 80%) | B ("B" is defined as 80%< substrate protein remaining %≤ 100%)
7 | O=C1CCN(N2Cc3cc(CN4CCC(c5ccc(F)cc5)CC4)ccc3C2=O)C(=O)N1 [GT-06890, 1-(5-((4-(4-fluorophenyl)piperidin-1-yl)methyl)-1-oxoisoindolin-2-yl)dihydropyrimidine-2,4(1H,3H)-dione] | A ("A" is defined as 0% ≤ substrate protein remaining % ≤ 80%) | B ("B" is defined as 80%< substrate protein remaining %≤ 100%) | B ("B" is defined as 80%< substrate protein remaining %≤ 100%) | B ("B" is defined as 80%< substrate protein remaining %≤ 100%) | A ("A" is defined as 0% ≤ substrate protein remaining % ≤ 80%) | B ("B" is defined as 80%< substrate protein remaining %≤ 100%)
8 | O=C1CCN(N2Cc3cc(CN4CCC(c5ccccc5C(F)(F)F)CC4)ccc3C2=O)C(=O)N1 [GT-06891, 1-(1-oxo-5-((4-(2-(trifluoromethyl)phenyl)piperidin-1-yl)methyl)isoindolin-2-yl)dihydropyrimidine-2,4(1H,3H)-dione] | A ("A" is defined as 0% ≤ substrate protein remaining % ≤ 80%) | A ("A" is defined as 0% ≤ substrate protein remaining % ≤ 80%) | B ("B" is defined as 80%< substrate protein remaining %≤ 100%) | B ("B" is defined as 80%< substrate protein remaining %≤ 100%) | A ("A" is defined as 0% ≤ substrate protein remaining % ≤ 80%) | B ("B" is defined as 80%< substrate protein remaining %≤ 100%)
9 | O=C1CCN(N2C(=O)c3ccc(CN4CCC(c5cccc(F)c5Cl)CC4)cc3C2=O)C(=O)N1 [GT-06895, 5-((4-(2-chloro-3-fluorophenyl)piperidin-1-yl)methyl)-2-(2,4-dioxotetrahydropyrimidin-1(2H)-yl)isoindoline-1,3-dione] | B ("B" is defined as 80%< substrate protein remaining %≤ 100%) | B ("B" is defined as 80%< substrate protein remaining %≤ 100%) | A ("A" is defined as 0% ≤ substrate protein remaining % ≤ 80%) | B ("B" is defined as 80%< substrate protein remaining %≤ 100%) | B ("B" is defined as 80%< substrate protein remaining %≤ 100%) | B ("B" is defined as 80%< substrate protein remaining %≤ 100%)
10 | O=C1CCN(N2C(=O)c3ccc(CN4CC=C(c5cccc(F)c5Cl)CC4)cc3C2=O)C(=O)N1 [GT-06896, 5-((4-(2-chloro-3-fluorophenyl)-3,6-dihydropyridin-1(2H)-yl)methyl)-2-(2,4-dioxotetrahydropyrimidin-1(2H)-yl)isoindoline-1,3-dione] | B ("B" is defined as 80%< substrate protein remaining %≤ 100%) | B ("B" is defined as 80%< substrate protein remaining %≤ 100%) | A ("A" is defined as 0% ≤ substrate protein remaining % ≤ 80%) | B ("B" is defined as 80%< substrate protein remaining %≤ 100%) | B ("B" is defined as 80%< substrate protein remaining %≤ 100%) | B ("B" is defined as 80%< substrate protein remaining %≤ 100%)
